Reference: US12178791B2, “Haloallylamine sulfone derivative inhibitors of lysyl oxidases and uses thereof” (Syntara Limited, priority 2018, dated 2024)
Entries after “also recorded” stand apart in the source; their conditions may differ. Structures can show the parent of a compound that is named as a salt.

Legend:
Bovine LOX = Bovine LOX (Bos taurus (Bovine), UniProt P33072); assay: LOX inhibition, Amplex Red oxidation assay; type: biochemical; conditions: 30 min preincubation at 37 °C, putrescine substrate
Chain of Bovine LOX (P33072 170-418): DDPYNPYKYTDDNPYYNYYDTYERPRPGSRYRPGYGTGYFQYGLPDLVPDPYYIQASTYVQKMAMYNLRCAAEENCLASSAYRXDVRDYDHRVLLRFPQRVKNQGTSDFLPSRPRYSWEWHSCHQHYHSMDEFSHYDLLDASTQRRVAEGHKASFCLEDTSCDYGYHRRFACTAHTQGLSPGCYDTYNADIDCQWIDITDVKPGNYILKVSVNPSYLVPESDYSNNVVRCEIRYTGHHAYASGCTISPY
How it was run: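 Bovine LOX in 1.2 M urea, 50 mM sodium borate pH 8.2, with 1 μM mofegiline and 0.5 mM pargyline unless recombinant or purified. The added mix held putrescine at twice KM (20 mM for LOX), 120 μM Amplex Red and 1.5 U/mL HRP.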

LOXL1 = LOXL1 (Homo sapiens (Human), UniProt Q08397); assay: Jump dilution experiment, sustained inhibition of LOXL1; type: biochemical; conditions: jump dilution after 40 min at 37 °C with 10× or 30× IC50; vs non-inhibited controls;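 further: 30× IC50 used only where needed so inhibitor exceeds enzyme concentration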
Chain of LOXL1 (Q08397 96-574, species assumed): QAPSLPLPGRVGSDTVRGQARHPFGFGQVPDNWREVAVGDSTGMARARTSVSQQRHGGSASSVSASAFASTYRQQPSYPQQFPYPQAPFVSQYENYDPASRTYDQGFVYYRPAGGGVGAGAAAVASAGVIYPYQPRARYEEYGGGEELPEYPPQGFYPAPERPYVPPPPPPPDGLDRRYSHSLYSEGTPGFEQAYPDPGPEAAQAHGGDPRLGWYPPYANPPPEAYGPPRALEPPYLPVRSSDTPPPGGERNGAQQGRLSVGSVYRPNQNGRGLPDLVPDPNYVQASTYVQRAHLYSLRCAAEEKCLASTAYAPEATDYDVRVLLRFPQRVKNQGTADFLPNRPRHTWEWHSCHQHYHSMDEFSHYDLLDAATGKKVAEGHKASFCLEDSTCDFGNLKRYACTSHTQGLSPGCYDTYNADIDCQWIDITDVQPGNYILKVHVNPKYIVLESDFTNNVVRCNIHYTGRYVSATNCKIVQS
How it was run: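 Enzyme preincubated with inhibitor at 100× the inhibition-study enzyme concentration, then diluted 50× in assay buffer and 2× in Amplex Red–HRP–putrescine mix. Fluorescence read; activity expressed as % signal recovery after a set time versus uninhibited controls.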

[1] = In vivo pharmacokinetics, plasma concentration after p.o. dosing; design: species or system Wistar rats; conditions: for concentration at 0.25 h / concentration at 0.5 h / concentration at 1 h / concentration at 2 h / concentration at 3 h / concentration at 5 h / concentration at 8 h / concentration at 4 h: male, Wistar, plasma, po, rat; for concentration at 0.5 h: 0.50 hours; for plasma concentrations relative to the IC50: rat plasma, after 8 hours
Procedure: Test compounds (10 mg/kg and 30 mg/kg in PBS, p.o. n=3) were administered to 7-9 weeks old male Wistar rats. Test compound blood samples were collected at time points from 0.25 h-8.00 h (Compound 1); 0.5 h-8.00 h (Compound 33) post administration, from tail vein.
Sample preparation: 20 μL of calibration samples (in single), QC samples (in duplicate) and rat plasma samples were mixed with 60 μL acetonitrile containing internal standard (IS; 200 ng/mL of tolbutamide and 50 ng/mL propanolol) in Eppendorf tubes. The mixture was vortexed for 1 min, then centrifuged for 10 min, 50 μL of supernatant was transferred to a 96 well-plate with 100 μL water. After shaking for 10 min, 10 μL was injected into the liquid chromatography mass spectrometry (LC-MS/MS) system for analysis.
HPLC: Agilent 1100; Mass Spectrometer: API 4000
Column: Phenomenex Gemini C18 5 μm 50×4.6 mm
Mobile phase: 0.1% formic acid in water, 0.1% formic acid in acetonitrile
HPLC: Shimadzu LC30AD; Mass Spectrometer: API 4000
For dilution samples: 10 μL sample was added to 90 μL blank rat plasma. The mixture was precipitated with 300 μL acetonitrile containing IS in Eppendorf tubes. The mixture was vortexed for 1 min, then centrifuged for 10 min, 50 μL supernatant was transferred to a 96 well-plate with 100 μL water. After shaking for 10 min, 10 μL was injected into the LC-MS/MS system for analysis. Determined, mean plasma concentrations for Compounds 1 and 33 are shown in Table 5 and Table 6 respectively.

Recombinant human MAO-B = Recombinant human MAO-B (Homo sapiens (Human), UniProt P27338); assay: Inhibition of human recombinant MAO-B; type: biochemical; conditions: benzylamine 100 μM
Chain of Recombinant human MAO-B (P27338 whole entry): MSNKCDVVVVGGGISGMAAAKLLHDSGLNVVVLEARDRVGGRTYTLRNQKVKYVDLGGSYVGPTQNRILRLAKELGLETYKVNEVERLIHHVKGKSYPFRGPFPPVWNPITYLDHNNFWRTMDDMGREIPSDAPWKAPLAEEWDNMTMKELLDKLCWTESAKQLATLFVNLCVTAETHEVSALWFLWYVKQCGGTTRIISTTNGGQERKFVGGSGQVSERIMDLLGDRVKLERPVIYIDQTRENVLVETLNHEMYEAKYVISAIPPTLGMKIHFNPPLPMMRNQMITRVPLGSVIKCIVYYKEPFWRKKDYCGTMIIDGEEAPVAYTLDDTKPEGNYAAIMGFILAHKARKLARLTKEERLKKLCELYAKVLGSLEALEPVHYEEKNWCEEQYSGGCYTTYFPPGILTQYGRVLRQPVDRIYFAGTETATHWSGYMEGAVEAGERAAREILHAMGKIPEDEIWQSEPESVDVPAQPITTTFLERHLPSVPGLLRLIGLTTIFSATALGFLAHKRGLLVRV
Procedure: The specificity of the compounds of this invention was tested by determining their ability to inhibit MAO-B activities in vitro. Recombinant human MAO-B (0.06 mg/mL; Sigma Aldrich) was used as source of MAO-B enzyme activities. The assay was performed in a similar way as for human SSAO/VAP-1 (Example 28) except, the substrate benzylamine was used at 100 μM.

rhSSAO = rhSSAO (Homo sapiens (Human), UniProt Q16853); assay: Measurement of substrate turnover by SSAO; type: biochemical; conditions: compound 2.5 mM, relative to background (dimethyl sulfoxide only)
Chain of rhSSAO (Q16853 whole entry): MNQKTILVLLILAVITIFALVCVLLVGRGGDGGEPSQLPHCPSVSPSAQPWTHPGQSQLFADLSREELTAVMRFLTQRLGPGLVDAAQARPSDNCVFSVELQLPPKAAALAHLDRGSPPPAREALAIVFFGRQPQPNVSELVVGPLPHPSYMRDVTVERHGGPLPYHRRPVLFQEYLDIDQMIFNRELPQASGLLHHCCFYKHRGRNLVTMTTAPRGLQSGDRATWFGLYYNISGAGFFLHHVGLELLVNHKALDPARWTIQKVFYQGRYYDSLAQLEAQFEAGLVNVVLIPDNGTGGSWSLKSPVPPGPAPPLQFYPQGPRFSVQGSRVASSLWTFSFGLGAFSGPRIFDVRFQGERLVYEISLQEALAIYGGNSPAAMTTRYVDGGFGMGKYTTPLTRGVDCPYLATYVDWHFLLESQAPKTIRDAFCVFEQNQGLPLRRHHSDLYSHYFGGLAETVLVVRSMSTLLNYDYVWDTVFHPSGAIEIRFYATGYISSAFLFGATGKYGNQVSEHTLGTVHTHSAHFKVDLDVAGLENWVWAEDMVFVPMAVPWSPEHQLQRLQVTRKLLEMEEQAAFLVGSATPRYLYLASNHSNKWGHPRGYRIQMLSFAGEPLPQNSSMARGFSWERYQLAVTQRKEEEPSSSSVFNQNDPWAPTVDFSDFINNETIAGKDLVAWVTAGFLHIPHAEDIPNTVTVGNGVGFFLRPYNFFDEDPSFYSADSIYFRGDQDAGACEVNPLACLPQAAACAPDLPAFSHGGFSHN
Procedure: In brief, the assay employed determines the substrate propensity of a compound relative to background (dimethyl sulfoxide only). Compound oxidation by rhSSAO was measured by fluorometric assay (Holt and Palcic, 2006). Briefly, rhSSAO was incubated for 2 hours at 37° C. in HEPES buffer before the addition of an equal volume of Amplex Red ([…]), horseradish peroxidase (4 U/ml), and Compound (2.5 mM) in the same buffer. The kinetics of the formation of resorufin was measured immediately using Optima reader (BMG Labtech GmbH, Ortenburg, Germany), at 37° C.

[2] = test system: deep dermal burn injuries; assay: Porcine burn injury model; type: in vivo, pigs; conditions: 3% topical daily for 4 weeks
Procedure: Pigs received 4×25 cm^2 deep dermal burn injuries, 2 on each flank. From the time of re-epithelialisation, on each pig, 2 wounds were treated with 3% Compound 1 cream daily for 4 weeks and 2 received control cream. Pigs were euthanized and tissue was processed for analysis.

[3] = vs control cream, hydrochloride

Compound | IC50 (Bovine LOX) | LOXL1 - Recovery of activity. (%) (LOXL1) | concentration at 0.5 h ([1]; 10 mg/kg p.o.) | concentration at 1 h ([1]; 10 mg/kg p.o.) | concentration at 2 h ([1]; 10 mg/kg p.o.) | concentration at 8 h ([1]; 10 mg/kg p.o.) | concentration at 0.5 h ([1]; 30 mg/kg p.o.) | concentration at 1 h ([1]; 30 mg/kg p.o.) | concentration at 2 h ([1]; 30 mg/kg p.o.) | concentration at 8 h ([1]; 30 mg/kg p.o.) | plasma concentrations relative to the IC50 [1] | IC50 (Recombinant human MAO-B) | further results
NC/C=C(\F)CS(=O)(=O)c1ccccc1 [Compound 1, (Z)-3-fluoro-4-(phenylsulfonyl)but-2-en-1-amine hydrochloride] | < 10 µM | 2.4% | 0.736 µg/mL | 0.45 µg/mL | 0.134 µg/mL | 0.0064 µg/mL | 2.09 µg/mL | 1.2 µg/mL | 0.657 µg/mL | 0.0135 µg/mL | far below the IC50 | > 30 µM | concentration at 0.25 h ([1]; 10 mg/kg p.o.): 0.379 µg/mL; concentration at 3 h ([1]; 10 mg/kg p.o.): 0.0664 µg/mL; concentration at 5 h ([1]; 10 mg/kg p.o.): 0.0272 µg/mL; concentration at 0.25 h ([1]; 30 mg/kg p.o.): 1.06 µg/mL; concentration at 3 h ([1]; 30 mg/kg p.o.): 0.239 µg/mL; concentration at 5 h ([1]; 30 mg/kg p.o.): 0.0413 µg/mL; Substrate activity for rhSSAO (rhSSAO): no significant turnover; Gross morphology and histology: thick collagen fibers [2]: reduced density; LOX activity in treated tissue [2, 3]: reduction; also recorded: significantly reduced; total collagen I protein [2, 3]: reduction; also recorded: significantly reduced
NC/C=C(\F)CS(=O)(=O)c1cccc2cccnc12 [Compound 33, (Z)-3-fluoro-4-(quinolin-8-ylsulfonyl)but-2-en-1-amine dihydrochloride] | < 10 µM | 4.5% | 0.771 µg/mL | 0.548 µg/mL | 0.246 µg/mL | 0.0084 µg/mL | 3.71 µg/mL | 3.01 µg/mL | 1.47 µg/mL | 0.0137 µg/mL | far below the IC50 | > 30 µM | concentration at 4 h ([1]; 10 mg/kg p.o.): 0.0564 µg/mL; concentration at 4 h ([1]; 30 mg/kg p.o.): 0.185 µg/mL
